“Also recorded” adds a separate entry of the source. Peptide text beside a SMILES is read from it.
Assay: Thermal denaturation of trimeric coiled coil peptides by CD thermal scan (signal at 222 nm versus temperature, curve fitting)
Format: physicochemical
Settings: for effect of core substitution on stability (transition temperature) compared to the reference peptide comprising isoleucine at positions 3a and 3d: core mutants at positions 3a and 3d of the reference peptide with glutamine at 2a, Figure 9
Protocol: The said synthesized peptide was dissolved at a concentration of 292 microM in 20 mM phosphate buffer (PBS), 150 mM NaCl, pH 7.2. The CD spectra were measured between […], at 5 and 90 degrees Celsius (Figure 3). The spectrum at 5 degrees Celsius was indicative of a high alpha-helical secondary structure content, in agreement with the expectation that all heptad regions, but not all of the flanking residues, would assemble as alpha-helical coiled coils.
To analyse whether the temperature-induced transition between helical and nonhelical states was reversible, a forward (up) and backward (down) thermal scan was performed on the same sample, by recording the CD signal at […] as a function of temperature at a scanning rate of about 1 degree Celsius per minute (Figure 4). It was observed that the up and down scans almost perfectly coincided, thereby confirming the quantitative unfolding and refolding of the peptides in the sample.
It was further analyzed whether the thermal unfolding curve of Figure 4 conformed to the thermodynamic equations describing the equilibrium folding/unfolding reaction between three molecules free (monomeric) peptide and one entity of folded (trimeric) complex. This reaction is generally written as 3 peptide <=> peptide3 wherein "<=>" refers to a chemical equilibrium, "peptide" to a monomeric peptide in solution and "peptide3" to a trimeric entity in the folded (assembled, associated) state. This thermal unfolding curve was fitted to the theoretic equations: θ(T) = θM (T) + (θT(T)-θM(T))(1+root(F(-(1)/(2)+sqrt((1)/(4) + (F)/(27))), 3)+root(F(-(1)/(2)-sqrt((1)/(4) + (F)/(27))), 3)) [formula] wherein F = (exp(-(ΔHt)/(RT)(1-T/T1)-(ΔCp)/(RT)(T-Tt-Tln(T/Tt))))/(4) [formula] and T≡ the temperature, in degrees Kelvin, of the sample θ(T)≡ the CD-signal [theta]222 nm, in deg cm^2 dmol^-1, as a function of T θM(T)≡ the CD-signal for 100% free (monomeric) peptide as a function of T θT(T) ≡ the CD-signal for 100% associated (trimeric) peptide as a function of T Tt ≡ the transition temperature, where 50% of the total peptide concentration is associated ΔHt ≡ the enthalpy difference, in kJ per mole peptide, between mono- and trimeric states ΔCp ≡ the heat capacity difference, in J mol^-1 K^-1, between mono- and trimeric states R ≡ the ideal (universal) gas constant ≡ 8.31 J mol^-1 K^-1
The global CD signal was somewhat lower than expected, which could be due to an instrumental deviation, an error in the concentration determination, a lower purity, or a lower than expected alpha-helical content. Nevertheless, the main goal of this experiment was to examine the effect of the glutamine-to-isoleucine mutant on the stability of the complex. […] The estimated transition temperature was around 97 degrees Celsius, although the latter was difficult to determine because of incompleteness of the transition.
All ten peptides were analyzed by thermal CD scanning as in Examples 3 and 4. Fitting of the thermal denaturation curves, as described in Example 3, gave the corresponding transition temperatures shown in Figure 9. […]

SMILES | effect of core substitution on stability (transition temperature) compared to the reference peptide comprising isoleucine at positions 3a and 3d | thermal stability (resistance against thermal denaturation), in words (CD thermal scan) | other results
CC[C@H](C)[C@H](NC(=O)[C@H](C)NC(=O)[C@H](C)NC(=O)[C@H](CCC(N)=O)NC(=O)[C@H](CCC(N)=O)NC(=O)[C@H](CCCCN)NC(=O)[C@H](CCC(N)=O)NC(=O)[C@@H](NC(=O)[C@H](CCC(=O)O)NC(=O)[C@H](CCC(=O)O)NC(=O)[C@@H](NC(=O)[C@H](CO)NC(=O)[C@H](CCSC)NC(C)=O)[C@@H](C)CC)[C@@H](C)CC)C(=O)N[C@@H](CCC(N)=O)C(=O)N[C@@H](CCCCN)C(=O)N[C@@H](CCC(N)=O)C(=O)N[C@H](C(=O)N[C@@H](C)C(=O)N[C@@H](C)C(=O)N[C@H](C(=O)N[C@@H](CCC(N)=O)C(=O)N[C@@H](CCCCN)C(=O)N[C@@H](CCC(N)=O)C(=O)N[C@H](C(=O)N[C@@H](Cc1ccc(O)cc1)C(=O)N[C@@H](CCCNC(=N)N)C(=O)N[C@@H](CCSC)C(=O)N[C@H](C(=O)N1CCC[C@H]1C(N)=O)[C@@H](C)O)[C@@H](C)CC)C(C)C)[C@@H](C)CC [3dV] (Ac-MSIEEIQKQQAAIQKQIAAVQKQIYRMTP-NH2) | relatively strong |  | 
CC[C@H](C)[C@H](NC(=O)[C@H](C)NC(=O)[C@H](C)NC(=O)[C@@H](NC(=O)[C@H](CCC(N)=O)NC(=O)[C@H](CCCCN)NC(=O)[C@H](CCC(N)=O)NC(=O)[C@@H](NC(=O)[C@H](CCC(=O)O)NC(=O)[C@H](CCC(=O)O)NC(=O)[C@@H](NC(=O)[C@H](CO)NC(=O)[C@H](CCSC)NC(C)=O)[C@@H](C)CC)[C@@H](C)CC)[C@@H](C)CC)C(=O)N[C@@H](CCC(N)=O)C(=O)N[C@@H](CCCCN)C(=O)N[C@@H](CCC(N)=O)C(=O)N[C@H](C(=O)N[C@@H](C)C(=O)N[C@@H](C)C(=O)N[C@H](C(=O)N[C@@H](CCC(N)=O)C(=O)N[C@@H](CCCCN)C(=O)N[C@@H](CCC(N)=O)C(=O)N[C@H](C(=O)N[C@@H](Cc1ccc(O)cc1)C(=O)N[C@@H](CCCNC(=N)N)C(=O)N[C@@H](CCSC)C(=O)N[C@H](C(=O)N1CCC[C@H]1C(N)=O)[C@@H](C)O)[C@@H](C)CC)[C@@H](C)CC)[C@@H](C)CC [Q2aI] (Ac-MSIEEIQKQIAAIQKQIAAIQKQIYRMTP-NH2) |  | extremely thermostable; also recorded: thermally stable | estimated transition temperature (292 microM peptide in 20 mM phosphate buffer (PBS), 150 mM NaCl, pH 7.2, CD signal at 222 nM, difficult to determine because transition incomplete): around 97 degrees Celsius; did not quantitatively unfold up to (CD thermal scan): 95 degrees Celsius; thermal stability (resistance against thermal denaturation), in words (CD thermal scan, listed as all-isoleucine core peptide): very high thermal stability; reversibility of thermal unfolding (down-scan recovery of the CD signal) (up and down thermal scan, about 1 degree Celsius per minute): full reversibility
CC[C@H](C)[C@H](NC(=O)[C@H](C)NC(=O)[C@H](C)NC(=O)[C@H](CCC(N)=O)NC(=O)[C@H](CCC(N)=O)NC(=O)[C@H](CCCCN)NC(=O)[C@H](CCC(N)=O)NC(=O)[C@@H](NC(=O)[C@H](CCC(=O)O)NC(=O)[C@H](CCC(=O)O)NC(=O)[C@@H](NC(=O)[C@H](CO)NC(=O)[C@H](CCSC)NC(C)=O)[C@@H](C)CC)[C@@H](C)CC)C(=O)N[C@@H](CCC(N)=O)C(=O)N[C@@H](CCCCN)C(=O)N[C@@H](CCC(N)=O)C(=O)N[C@H](C(=O)N[C@@H](C)C(=O)N[C@@H](C)C(=O)N[C@H](C(=O)N[C@@H](CCC(N)=O)C(=O)N[C@@H](CCCCN)C(=O)N[C@@H](CCC(N)=O)C(=O)N[C@H](C(=O)N[C@@H](Cc1ccc(O)cc1)C(=O)N[C@@H](CCCNC(=N)N)C(=O)N[C@@H](CCSC)C(=O)N[C@H](C(=O)N1CCC[C@H]1C(N)=O)[C@@H](C)O)[C@@H](C)CC)[C@@H](C)CC)[C@@H](C)CC [Q2a] (Ac-MSIEEIQKQQAAIQKQIAAIQKQIYRMTP-NH2) |  | moderately stable | 

The next lines start with results.

effect of core substitution on stability (transition temperature) compared to the reference peptide comprising isoleucine at positions 3a and 3d | SMILES | thermal stability (resistance against thermal denaturation), in words (CD thermal scan) | other results
disruptive | CC[C@H](C)[C@H](NC(=O)[C@H](C)NC(=O)[C@H](C)NC(=O)[C@H](CCC(N)=O)NC(=O)[C@H](CCC(N)=O)NC(=O)[C@H](CCCCN)NC(=O)[C@H](CCC(N)=O)NC(=O)[C@@H](NC(=O)[C@H](CCC(=O)O)NC(=O)[C@H](CCC(=O)O)NC(=O)[C@@H](NC(=O)[C@H](CO)NC(=O)[C@H](CCSC)NC(C)=O)[C@@H](C)CC)[C@@H](C)CC)C(=O)N[C@@H](CCC(N)=O)C(=O)N[C@@H](CCCCN)C(=O)N[C@@H](CCC(N)=O)C(=O)N[C@H](C(=O)N[C@@H](C)C(=O)N[C@@H](C)C(=O)N[C@@H](CCC(N)=O)C(=O)N[C@@H](CCC(N)=O)C(=O)N[C@@H](CCCCN)C(=O)N[C@@H](CCC(N)=O)C(=O)N[C@H](C(=O)N[C@@H](Cc1ccc(O)cc1)C(=O)N[C@@H](CCCNC(=N)N)C(=O)N[C@@H](CCSC)C(=O)N[C@H](C(=O)N1CCC[C@H]1C(N)=O)[C@@H](C)O)[C@@H](C)CC)[C@@H](C)CC [3dQ] (Ac-MSIEEIQKQQAAIQKQIAAQQKQIYRMTP-NH2) |  | 
disruptive | CC[C@H](C)[C@H](NC(=O)[C@H](C)NC(=O)[C@H](C)NC(=O)[C@H](CCC(N)=O)NC(=O)[C@H](CCC(N)=O)NC(=O)[C@H](CCCCN)NC(=O)[C@H](CCC(N)=O)NC(=O)[C@@H](NC(=O)[C@H](CCC(=O)O)NC(=O)[C@H](CCC(=O)O)NC(=O)[C@@H](NC(=O)[C@H](CO)NC(=O)[C@H](CCSC)NC(C)=O)[C@@H](C)CC)[C@@H](C)CC)C(=O)N[C@@H](CCC(N)=O)C(=O)N[C@@H](CCCCN)C(=O)N[C@@H](CCC(N)=O)C(=O)N[C@H](C(=O)N[C@@H](C)C(=O)N[C@@H](C)C(=O)N[C@@H](CO)C(=O)N[C@@H](CCC(N)=O)C(=O)N[C@@H](CCCCN)C(=O)N[C@@H](CCC(N)=O)C(=O)N[C@H](C(=O)N[C@@H](Cc1ccc(O)cc1)C(=O)N[C@@H](CCCNC(=N)N)C(=O)N[C@@H](CCSC)C(=O)N[C@H](C(=O)N1CCC[C@H]1C(N)=O)[C@@H](C)O)[C@@H](C)CC)[C@@H](C)CC [3dS] (Ac-MSIEEIQKQQAAIQKQIAASQKQIYRMTP-NH2) |  | 

From patent publication EP2161278B1, “Single-chain coiled coil scaffold” (Complix N.V., priority 2008, dated 2010)
